Among the data in patent US9452980B2, “Substituted benzamides” (Hoffmann-La Roche Inc., priority 2009, dated 2016) are Ki values, retold here.

Molecules are shown by their SMILES. Where a name gives a salt, the structure may show the parent alone. Read-outs that look alike come from different tables or passages of the source.

One experiment addresses mouse TAAR1 (Mus musculus (Mouse), UniProt Q923Y8). The experiment is described as follows: Radioligand binding assay on mouse TAAR1. Particulars: read-out: Ki (μM) mouse. Summed up: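 Membranes were from HEK293 cells stably expressing mouse TAAR1. Compounds from 10 pM to 10 μM, in duplicate, competed with [3H]-(S)-4-[(ethyl-phenyl-amino)-methyl]-4,5-dihydro-oxazol-2-ylamine for 1 h at 4 °C. Nonspecific binding was defined with 10 μM unlabelled ligand, and bound radioactivity was read by filtration and scintillation.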

Another experiment concerns the target rat TAAR1 (Rattus norvegicus (Rat), UniProt Q923Y9). In words: Radioligand binding assay on rat TAAR1. The settings on record: read-out: Ki (μM) rat. Summed up: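 Membranes from HEK293 cells stably expressing rat TAAR1, with Kd checked per batch by saturation. Competition with ³H-(S)-4-[(ethyl-phenyl-amino)-methyl]-4,5-dihydro-oxazol-2-ylamine, compounds 10 pM–10 μM in duplicate, 1 hr at 4 °C. Filtration then scintillation counting; nonspecific binding defined with 10 μM unlabeled ligand.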

Setting [1] is: mouse TAAR1, HEK-293 membranes, first value of cell mouse/rat.
Where [2] appears, read: rat TAAR1, HEK-293 membranes, second value of cell mouse/rat.

mouse TAAR1, sequence (Q923Y8 whole entry): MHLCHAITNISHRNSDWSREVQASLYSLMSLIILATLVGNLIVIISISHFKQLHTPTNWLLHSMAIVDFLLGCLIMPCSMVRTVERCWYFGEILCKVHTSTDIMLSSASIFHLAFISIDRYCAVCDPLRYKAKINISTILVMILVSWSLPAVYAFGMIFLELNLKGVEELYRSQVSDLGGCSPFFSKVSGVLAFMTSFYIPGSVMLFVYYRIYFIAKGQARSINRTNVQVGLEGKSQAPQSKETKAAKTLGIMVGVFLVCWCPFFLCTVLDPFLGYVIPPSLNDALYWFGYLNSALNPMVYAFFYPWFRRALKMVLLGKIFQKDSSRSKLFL
rat TAAR1, sequence (Q923Y9 whole entry): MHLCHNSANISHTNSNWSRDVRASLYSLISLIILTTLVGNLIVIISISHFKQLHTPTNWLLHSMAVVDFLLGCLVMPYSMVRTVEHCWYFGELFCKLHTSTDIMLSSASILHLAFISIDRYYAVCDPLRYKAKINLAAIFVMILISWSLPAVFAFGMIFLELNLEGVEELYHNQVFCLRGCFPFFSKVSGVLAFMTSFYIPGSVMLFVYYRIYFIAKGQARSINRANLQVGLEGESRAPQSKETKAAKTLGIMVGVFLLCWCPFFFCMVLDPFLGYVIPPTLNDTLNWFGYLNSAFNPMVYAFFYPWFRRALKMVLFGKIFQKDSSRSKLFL

For the compound `O=C(Nc1ccc([C@H]2CNCCO2)cc1)c1ccc(OCC(F)(F)F)nc1` [Example 269, (S)—N-(4-(Morpholin-2-yl)phenyl)-6-(2,2,2-trifluoroethoxy)nicotinamide hydrochloride], the inhibition constant Ki (in general, the dissociation constant of the complex between target and ligand, obtained from inhibition or displacement) on mouse TAAR1 stood at 0.0099 µM; on rat TAAR1, 0.003 µM.
Taken in the same sequence, the figures for `O=C(Nc1ccc([C@@H]2CNCCO2)cc1)c1cc(Cl)nc(Cl)c1` [Example 270, (R)-2,6-Dichloro-N-(4-(morpholin-2-yl)phenyl)isonicotinamide hydrochloride] were 0.0049 µM and 0.0045 µM.
Turning to `O=C(Nc1ccc([C@H]2CNCCO2)cc1)c1cc(Cl)nc(Cl)c1` [Example 271, (S)-2,6-Dichloro-N-(4-(morpholin-2-yl)phenyl)isonicotinamide hydrochloride], the Ki at mouse TAAR1 is 0.0067 µM; at rat TAAR1, 0.004 µM.
For the compound `CCc1cnc(C(=O)Nc2ccc([C@@H]3CCCNC3)cc2)cn1` [Example 274, (S)-5-Ethyl-N-(4-(piperidin-3-yl)phenyl)pyrazine-2-carboxamide hydrochloride], the inhibition constant (Ki) is 2.51 µM at mouse TAAR1 (setting [1]) and 0.0174 µM on rat TAAR1 (setting [2]).
Regarding `CCOc1ccc(C(=O)Nc2ccc([C@@H]3CNCCO3)cc2)cc1` [Example 275, (R)-4-Ethoxy-N-(4-(morpholin-2-yl)phenyl)benzamide hydrochloride], the values for the Ki on mouse TAAR1 (setting [1]) and at rat TAAR1 were 0.0082 µM and 0.0036 µM, respectively.
In the case of `CCOc1ccc(C(=O)Nc2ccc([C@H]3CNCCO3)cc2)cc1` [Example 276, (S)-4-Ethoxy-N-(4-(morpholin-2-yl)phenyl)benzamide hydrochloride], the Ki at mouse TAAR1 (setting [1]) stood at 0.0558 µM; on rat TAAR1 it was 0.0008 µM.
For the compound `CCCc1cnc(C(=O)Nc2ccc([C@@H]3CCCNC3)cc2)cn1` [Example 278, (S)—N-(4-(Piperidin-3-yl)phenyl)-5-propylpyrazine-2-carboxamide hydrochloride], the inhibition constant Ki came to 0.829 µM on mouse TAAR1 and 0.0118 µM on rat TAAR1 (setting [2]).
Turning to `O=C(Nc1ccc([C@@H]2CCCNC2)cc1)c1cc(Cl)nc(Cl)c1` [Example 281, (S)-2,6-Dichloro-N-(4-(piperidin-3-yl)phenyl)isonicotinamide hydrochloride], the figures for the Ki on mouse TAAR1 (setting [1]) and on rat TAAR1 (setting [2]) were 0.0128 µM and 0.0014 µM, respectively.
Take `Cc1cc(C(=O)Nc2ccc([C@@H]3CCCNC3)cc2)cc(Cl)n1` [Example 282, (S)-2-Chloro-6-methyl-N-(4-(piperidin-3-yl)phenyl)isonicotinamide]: the results for the Ki on mouse TAAR1 and on rat TAAR1 (setting [2]) were 0.243 µM and 0.0048 µM, respectively.
For `O=C(Nc1ccc([C@@H]2CNCCO2)cc1)c1ccc(C(F)(F)F)nc1` [Example 283, (R)—N-(4-(Morpholin-2-yl)phenyl)-6-(trifluoromethyl)nicotinamide hydrochloride], the Ki came out at 0.006 µM at mouse TAAR1 (setting [1]) and 0.0059 µM at rat TAAR1.
In the case of `O=C(Nc1ccc([C@H]2CNCCO2)cc1)c1ccc(C(F)(F)F)nc1` [Example 284, (S)—N-(4-(Morpholin-2-yl)phenyl)-6-(trifluoromethyl)nicotinamide hydrochloride], the inhibition constant Ki on mouse TAAR1 came to 0.0128 µM; on rat TAAR1, 0.005 µM.
For `Cc1cc(C(=O)Nc2ccc([C@@H]3CNCCO3)cc2)cc(Cl)n1` [Example 285, (R)-2-Chloro-6-methyl-N-(4-(morpholin-2-yl)phenyl)isonicotinamide hydrochloride], the Ki stood at 0.0082 µM at mouse TAAR1 and 0.005 µM at rat TAAR1 (setting [2]).
As for `Cc1cc(C(=O)Nc2ccc([C@H]3CNCCO3)cc2)cc(Cl)n1` [Example 286, (S)-2-Chloro-6-methyl-N-(4-(morpholin-2-yl)phenyl)isonicotinamide hydrochloride], the inhibition constant (Ki) on mouse TAAR1 stood at 0.0222 µM; at rat TAAR1 (setting [2]), 0.0044 µM.
`CCCc1ccc(C(=O)Nc2ccc([C@@H]3CCCNC3)cc2)cn1` [Example 289, (S)—N-(4-(Piperidin-3-yl)phenyl)-6-propylnicotinamide]: the Ki on mouse TAAR1 (setting [1]) came to 0.143 µM; at rat TAAR1 it was 0.0027 µM.
In the case of `CCc1ccc(C(=O)Nc2ccc([C@@H]3CCCNC3)cc2)cn1` [Example 297, (S)-6-Ethyl-N-(4-(piperidin-3-yl)phenyl)nicotinamide], the inhibition constant Ki on mouse TAAR1 (setting [1]) worked out at 0.018 µM; on rat TAAR1 (setting [2]), 0.0044 µM.
Consider `O=C(Nc1ccc([C@H]2CNCCO2)cc1)c1ccc(Cl)cc1I` [Example 301, (S)-4-Chloro-2-iodo-N-(4-(morpholin-2-yl)phenyl)benzamide], for which the inhibition constant (Ki) on mouse TAAR1 (setting [1]) worked out at 0.0509 µM; on rat TAAR1 (setting [2]) it was 0.007 µM.
On to `O=C(Nc1ccc([C@H]2CNCCCO2)cc1)c1cccc(Cl)c1` [Example 308, (S)—N-(4-(1,4-Oxazepan-2-yl)phenyl)-3-chlorobenzamide hydrochloride], for which the Ki came to 0.287 µM at mouse TAAR1 (setting [1]) and 0.0018 µM at rat TAAR1 (setting [2]).
Regarding `C[C@H]1CNC[C@H](c2ccc(NC(=O)c3cccc(Cl)c3)cc2)O1` [Example 309, 3-Chloro-N-(4-((2S,6S)-6-methylmorpholin-2-yl)phenyl)benzamide hydrochloride], the inhibition constant (Ki) on mouse TAAR1 was determined as 0.116 µM; on rat TAAR1 (setting [2]), 0.0023 µM.
For `C[C@@H]1CNC[C@H](c2ccc(NC(=O)c3ccc(Cl)nc3)cc2)O1` [Example 310, 6-Chloro-N-(4-((2S,6R)-6-methylmorpholin-2-yl)phenyl)nicotinamide hydrochloride], the results for the Ki at mouse TAAR1 and at rat TAAR1 (setting [2]) were 0.0476 µM and 0.0108 µM, respectively.
Consider `O=C(Nc1ccc([C@@H]2CNCCO2)cc1)Nc1ccc(C(F)(F)F)cc1` [Example 311, (R)-1-(4-(Morpholin-2-yl)phenyl)-3-(4-(trifluoromethyl)phenyl)urea hydrochloride], for which the Ki on mouse TAAR1 (setting [1]) stood at 0.0005 µM; on rat TAAR1, 0.0014 µM.
The matching figures for `O=C(Nc1ccc([C@H]2CNCCO2)cc1)Nc1ccc(C(F)(F)F)cc1` [Example 312, (S)-1-(4-(Morpholin-2-yl)phenyl)-3-(4-(trifluoromethyl)phenyl)urea hydrochloride]: 0.0007 µM and 0.0011 µM.
Turning to `O=C(NCc1ccc([C@@H]2CNCCO2)cc1)c1cccc(Cl)c1` [Example 313, (R)-3-Chloro-N-(4-(morpholin-2-yl)benzyl)benzamide hydrochloride], the Ki at mouse TAAR1 (setting [1]) worked out at 0.547 µM; on rat TAAR1 (setting [2]) it was 0.0154 µM.
Regarding `O=C(NCc1ccc([C@@H]2CNCCO2)cc1)c1ccc(Cl)cc1` [Example 314, (R)-4-Chloro-N-(4-(morpholin-2-yl)benzyl)benzamide hydrochloride], the results for the inhibition constant Ki at mouse TAAR1 (setting [1]) and on rat TAAR1 (setting [2]) were 1.89 µM and 0.0062 µM, respectively.
The matching figures for `O=C(NCc1ccc([C@@H]2CNCCO2)cc1)c1ccc(Cl)nc1` [Example 315, (R)-6-Chloro-N-(4-(morpholin-2-yl)benzyl)nicotinamide hydrochloride]: 1.35 µM and 0.009 µM.
Taken in the same sequence, the figures for `O=C(NCc1ccc([C@@H]2CNCCO2)cc1)c1ccc(OCC(F)(F)F)nc1` [Example 316, (R)—N-(4-(Morpholin-2-yl)benzyl)-6-(2,2,2-trifluoroethoxy)nicotinamide hydrochloride] were 0.273 µM and 0.0121 µM.
On to `O=C(NCc1ccc([C@H]2CNCCO2)cc1)c1cccc(Cl)c1` [Example 318, (S)-3-Chloro-N-(4-(morpholin-2-yl)benzyl)benzamide hydrochloride], for which the Ki at mouse TAAR1 (setting [1]) is 12900 µM; on rat TAAR1 (setting [2]) it was 0.0312 µM.
On to `O=C(NCc1ccc([C@@H]2CNCCO2)cc1)c1ccc(C(F)(F)F)nc1` [Example 321, (R)—N-(4-(Morpholin-2-yl)benzyl)-6-(trifluoromethyl)nicotinamide hydrochloride], for which the inhibition constant Ki amounted to 1.31 µM at mouse TAAR1 and 0.026 µM on rat TAAR1.
The matching figures for `C[C@H]1CO[C@@H](c2ccc(NC(=O)c3cccc(Cl)c3)cc2)CN1` [Example 322, 3-Chloro-N-[4-((2S,5S)-5-methyl-morpholin-2-yl)-phenyl]-benzamide hydrochloride]: 0.0188 µM and 0.0017 µM.
`C[C@@H]1CO[C@@H](c2ccc(NC(=O)c3cccc(Cl)c3)cc2)CN1` [Example 323, 3-Chloro-N-[4-((2S,5R)-5-methyl-morpholin-2-yl)-phenyl]-benzamide hydrochloride]: the values for the inhibition constant (Ki) on mouse TAAR1 and at rat TAAR1 were 0.0592 µM and 0.0013 µM, respectively.
